# Legend:
# Experiment in all cases: Cell viability drug screen, 12-point dose-response AUC
# Type in all cases: cell-based, human
# [1] = system: YCC2; conditions: YCC2 cells; 72 hours
# Procedure: (§1) An FDA-approved small-molecule pharmacological compound (#L1300) and an anticancer compound for research (#L2000) were purchased from Selecckchem and a 10 mM solution was prepared in DMSO. A total of 1,345 compounds were tested the cell viability of the seven EMT gastric cancer cell lines.
# (§2) Cells cultured for cell-based drug assay were inoculated into a 96-well white optical plate (Corning) at 5×10^3 cells per well. After 24 hours after inoculation, a 2.5 MJT (primary screen) or a half-log 12-serial diluent (secondary screen) of the pharmacological compound contained in DMSO is added to the cells with a robot using a BioMek FXp liquid processor (Beckman) to add to the cells at 50 mM. The final drug concentration in the 5 ns range and the DMSO specification control (0.5%) were calculated. The cells were then further incubated at 37° C. in a 5% CO2 incubator for 72 hours prior to measuring cell viability using the extra-GLO assay kit (Promega). The luminescent properties were measured after 15 min incubation at room temperature using a plate stacker equipped with a plate stacker. The normalized viability for the DMSO-based control was measured to generate a cell line-specific 12-point dose-response curve for each pharmacological compound, and then the area under the curve (AUC) was calculated using a trapezoidal method. […] The results of the repeated experiments were averaged to generate AUC values for each cell line for each compound.
# [2] = system: SNU719; conditions: SNU719 cells; 72 hours
# Procedure: as §1, §2
# [3] = system: NCC24; conditions: NCC24 cells; 72 hours
# Procedure: as §1, §2
# [4] = system: SNU1967; conditions: SNU1967 cells; 72 hours
# Procedure: as §1, §2
# [5] = system: YCC3; conditions: YCC3 cells; 72 hours
# Procedure: as §1, §2
# [6] = system: NCC59; conditions: NCC59 cells; 72 hours
# Procedure: as §1, §2
# [7] = system: MKN28; conditions: MKN28 cells; 72 hours
# Procedure: as §1, §2
# [8] = system: NCI_N87; conditions: NCI_N87 cells; 72 hours
# Procedure: as §1, §2
# [9] = system: SNU638; conditions: SNU638 cells; 72 hours
# Procedure: as §1, §2
# [10] = system: AGS; conditions: AGS cells (non-SEM subtype); 72 hours
# Procedure: as §1, §2
# [11] = system: SNU601; conditions: SNU601 cells; 72 hours
# Procedure: as §1, §2
# [12] = system: NCC19; conditions: NCC19 cells; 72 hours
# Procedure: as §1, §2
# [13] = system: SNU484; conditions: SNU484 cells (SEM subtype); 72 hours
# Procedure: as §1, §2
# [14] = system: MKN45; conditions: MKN45 cells (non-SEM subtype); 72 hours
# Procedure: as §1, §2
# [15] = system: YCC11; conditions: YCC11 cells (SEM subtype); 72 hours
# Procedure: as §1, §2
# [16] = system: MKN74; conditions: MKN74 cells; 72 hours
# Procedure: as §1, §2
# [17] = system: SK4; conditions: SK4 cells (SEM subtype); 72 hours
# Procedure: as §1, §2
# [18] = system: SNU1; conditions: SNU1 cells; 72 hours
# Procedure: as §1, §2
# [19] = system: Hs746T; conditions: Hs746T cells (SEM subtype); 72 hours
# Procedure: as §1, §2
# [20] = system: NCC20; conditions: NCC20 cells; 72 hours
# Procedure: as §1, §2
# [21] = system: SNU1750; conditions: SNU1750 cells (SEM subtype); 72 hours
# Procedure: as §1, §2
# [22] = system: SNU216; conditions: SNU216 cells (non-SEM subtype); 72 hours
# Procedure: as §1, §2
# [23] = system: KATO3; conditions: KATO3 cells; 72 hours
# Procedure: as §1, §2
# [24] = system: OCUM1; conditions: OCUM1 cells; 72 hours
# Procedure: as §1, §2
# [25] = system: SNU620; conditions: SNU620 cells; 72 hours
# Procedure: as §1, §2
# [26] = system: SNU668; conditions: SNU668 cells (SEM subtype); 72 hours
# Procedure: as §1, §2
# [27] = system: MKN1; conditions: MKN1 cells; 72 hours
# Procedure: as §1, §2
# [28] = system: SNU16; conditions: SNU16 cells; 72 hours
# Procedure: as §1, §2
# [29] = system: FU97; set-up: Average Area Under the Viability Curve (AUC), AUC norm value: scale not given here; conditions: FU97 cells; 72 hours
# Procedure: Cells cultured for cell-based drug assay were inoculated into a 96-well white optical plate (Corning) at 5×10^3 cells per well. After 24 hours after inoculation, a 2.5 MJT (primary screen) or a half-log 12-serial diluent (secondary screen) of the pharmacological compound contained in DMSO is added to the cells with a robot using a BioMek FXp liquid processor (Beckman) to add to the cells at 50 mM. The final drug concentration in the 5 ns range and the DMSO specification control (0.5%) were calculated. The cells were then further incubated at 37° C. in a 5% CO2 incubator for 72 hours prior to measuring cell viability using the extra-GLO assay kit (Promega). The luminescent properties were measured after 15 min incubation at room temperature using a plate stacker equipped with a plate stacker. The normalized viability for the DMSO-based control was measured to generate a cell line-specific 12-point dose-response curve for each pharmacological compound, and then the area under the curve (AUC) was calculated using a trapezoidal method.
structure (smiles),measurement,setting,value
C/C=C(\C)C(=O)N[C@@H](c1ccccc1)[C@@H](O)C(=O)O[C@H]1C[C@@]2(O)[C@@H](OC(=O)c3ccccc3)[C@@H]3[C@]4(OC(C)=O)CO[C@@H]4C[C@H](O)[C@@]3(C)C(=O)[C@H](OC(C)=O)C(=C1C)C2(C)C [Cephalomannine],"Average Area Under the Viability Curve (AUC), AUC norm value",[1],0.3838
same,"Average Area Under the Viability Curve (AUC), AUC norm value",[2],4.893
same,"Average Area Under the Viability Curve (AUC), AUC norm value",[3],−0.7716
same,"Average Area Under the Viability Curve (AUC), AUC norm value",[4],0.6525
same,"Average Area Under the Viability Curve (AUC), AUC norm value",[5],2.809
same,"Average Area Under the Viability Curve (AUC), AUC norm value",[6],2.734
same,"Average Area Under the Viability Curve (AUC), AUC norm value",[7],−1.697
same,"Average Area Under the Viability Curve (AUC), AUC norm value",[8],−1.26
same,"Average Area Under the Viability Curve (AUC), AUC norm value",[9],−0.03958
same,"Average Area Under the Viability Curve (AUC), AUC norm value",[10],−2.055
same,"Average Area Under the Viability Curve (AUC), AUC norm value",[11],0.2225
same,"Average Area Under the Viability Curve (AUC), AUC norm value",[12],1.7094
same,"Average Area Under the Viability Curve (AUC), AUC norm value",[13],−0.7051
same,"Average Area Under the Viability Curve (AUC), AUC norm value",[14],0
same,"Average Area Under the Viability Curve (AUC), AUC norm value",[15],−1.013
same,"Average Area Under the Viability Curve (AUC), AUC norm value",[16],0.3528
same,"Average Area Under the Viability Curve (AUC), AUC norm value",[17],−1.144
same,"Average Area Under the Viability Curve (AUC), AUC norm value",[18],−2.056
same,"Average Area Under the Viability Curve (AUC), AUC norm value",[19],0.449
same,"Average Area Under the Viability Curve (AUC), AUC norm value",[20],−0.5011
same,"Average Area Under the Viability Curve (AUC), AUC norm value",[21],1.009
same,"Average Area Under the Viability Curve (AUC), AUC norm value",[22],1.8612
same,"Average Area Under the Viability Curve (AUC), AUC norm value",[23],4.179
same,"Average Area Under the Viability Curve (AUC), AUC norm value",[24],1.3887
same,"Average Area Under the Viability Curve (AUC), AUC norm value",[25],−2.403
same,"Average Area Under the Viability Curve (AUC), AUC norm value",[26],−0.1911
same,"Average Area Under the Viability Curve (AUC), AUC norm value",[27],−1.486
same,"Average Area Under the Viability Curve (AUC), AUC norm value",[28],−1.737
same,"Average Area Under the Viability Curve (AUC), AUC norm value",[29],0.4107

# — patent US20250129430A1, “HIGH ATP-AFFINITY PROTEIN AS THERAPEUTIC TARGET FOR INTRACTABLE CANCER MOLECULAR SUBTYPES AND INHIBITOR THEREOF” (VeraVerse Co., Ltd., priority 2021, published 2025)
